{"source": "patent US20250120420A1", "about": "“FEED ADDITIVE FOR IMPROVING ANIMAL PERFORMANCE, DIGESTION AND INTESTINAL HEALTH AND RELATED METHODS” (priority 2023, published 2025)", "key": {"broilers": {"tested_on": "broilers", "experiment": "Broiler trial, xylanase/COS dose response, 35 days, zootechnical performance", "type": "in vivo", "method": "The researchers performed a study in growing poultry, in which xylanase and COS were combined in a dose response study in order to study the impact of combining xylanase and COS on poultry growth.\nMaterials and Methods: The effects of dietary supplementation of a combination of xylanase/COS were evaluated in a broiler trial over a duration of 35 days. A total of 1200 Ross broilers were used in this experiment, with five diets and 12 replicates per diet."}, "laying hens": {"tested_on": "laying hens", "experiment": "Laying hen trial, two-by-two factorial xylanase / COS, 60 days", "type": "in vivo, HiSex laying hens", "method": "The researchers combined xylanase and COS in a two-by-two factorial design study in order to investigate the impact of combining xylanase and COS on animal intestinal health, and specifically the microbiome. Materials and Methods: The effects of dietary supplementation of a combination of xylanase/COS (prototype or “[…]”) were evaluated in a laying hen trial over a duration of 60 days. A total of 40 HiSex laying hens were used in this experiment, with four diets and 10 replicates per diet. Dosages were determined based on extrapolation of the in vitro cell culture data. Laying hens were allocated into four different groups: (T1) Control; […] (T3) xylanase alone, using […] Industries, Inc.); (T4) and a combination of xylanase and COS. The diets were based on wheat ( 55%), soybean and sunflower meal."}, "[1]": {"settings": "Grower phase, 15-35 days of age"}, "[2]": {"settings": "Starter phase, 0-14 days of age"}}, "note": "Marks after values point to notes of the source that are not given here."}
{"substance": "beta 1-4, endo-xylanase enzyme [Xygest HT]", "values": [{"measurement": "ADFI", "setting": "broilers; Global trial, 0-35 days of age", "result": 87.2, "unit": "g/day"}, {"measurement": "FCR", "setting": "broilers; Global trial, 0-35 days of age", "result": "1.51^ab"}, {"measurement": "M-ADFI (mortality adjusted mean daily feed intake)", "setting": "broilers; Global trial, 0-35 days of age", "result": 86.8, "unit": "g/day"}, {"measurement": "M-ADG (mortality adjusted mean daily gain)", "setting": "broilers; Global trial, 0-35 days of age", "result": "57.5^a g/d"}, {"measurement": "M-FCR (Mortality adjusted feed:gain)", "setting": "broilers; Global trial, 0-35 days of age", "result": "1.51^ab"}, {"measurement": "ADFI", "setting": "broilers; [1]", "result": 123.7, "unit": "g/day"}, {"measurement": "ADG", "setting": "broilers; [1]", "result": "80.0^a g/d"}, {"measurement": "FCR", "setting": "broilers; [1]", "result": "1.55^ab"}, {"measurement": "M-ADFI (mortality adjusted mean daily feed intake)", "setting": "broilers; [1]", "result": 123.3, "unit": "g/day"}, {"measurement": "M-ADG (mortality adjusted mean daily gain)", "setting": "broilers; [1]", "result": "79.9^a g/d"}, {"measurement": "M-FCR (Mortality adjusted feed:gain)", "setting": "broilers; [1]", "result": "1.54^ab"}, {"measurement": "ADFI", "setting": "broilers; [2]", "result": 32.9, "unit": "g/day"}, {"measurement": "ADG", "setting": "broilers; [2]", "result": 24.5, "unit": "g/day"}, {"measurement": "FCR", "setting": "broilers; [2]", "result": 1.35}, {"measurement": "M-ADFI (mortality adjusted mean daily feed intake)", "setting": "broilers; [2]", "result": 32.8, "unit": "g/day"}, {"measurement": "M-ADG (mortality adjusted mean daily gain)", "setting": "broilers; [2]", "result": 24.4, "unit": "g/day"}, {"measurement": "M-FCR (Mortality adjusted feed:gain)", "setting": "broilers; [2]", "result": "1.34^ab"}, {"measurement": "Body weight", "setting": "broilers; broilers, 14 days of age", "result": 386, "unit": "g"}, {"measurement": "Albumin Height", "setting": "laying hens; End of Phase 1", "result": 7.1, "unit": "a mm"}, {"measurement": "Egg Shell Thickness", "setting": "laying hens; End of Phase 1", "result": 0.397, "unit": "a mm"}, {"measurement": "Haugh Unit (HU)", "setting": "laying hens; End of Phase 1", "result": 84.3, "unit": "a"}, {"measurement": "Shell Breaking Strength", "setting": "laying hens; End of Phase 1", "result": 4.6, "unit": "a kg · force"}, {"measurement": "Yolk Color Score (DSM method)", "setting": "laying hens; End of Phase 1", "result": 5.3, "unit": "a"}, {"measurement": "Yolk Diameter", "setting": "laying hens; End of Phase 1", "result": 43.2, "unit": "mm"}, {"measurement": "Yolk Height", "setting": "laying hens; End of Phase 1", "result": 18.7, "unit": "mm"}, {"measurement": "Yolk Index", "setting": "laying hens; End of Phase 1", "result": 0.44}, {"measurement": "Albumin Height", "setting": "laying hens; End of Phase 2", "result": 7.9, "unit": "a mm"}, {"measurement": "Egg Shell Thickness", "setting": "laying hens; End of Phase 2", "result": 0.428, "unit": "a mm"}, {"measurement": "Haugh Unit (HU)", "setting": "laying hens; End of Phase 2", "result": 88.7, "unit": "a"}, {"measurement": "Shell Breaking Strength", "setting": "laying hens; End of Phase 2", "result": 4.7, "unit": "ab kg · force"}, {"measurement": "Yolk Color Score (DSM method)", "setting": "laying hens; End of Phase 2", "result": 6.7, "unit": "a"}, {"measurement": "Yolk Diameter", "setting": "laying hens; End of Phase 2", "result": 44.2, "unit": "mm"}, {"measurement": "Yolk Height", "setting": "laying hens; End of Phase 2", "result": 18.3, "unit": "ab mm"}, {"measurement": "Yolk Index", "setting": "laying hens; End of Phase 2", "result": 0.42, "unit": "a"}, {"measurement": "Egg mass, % Improvement compared to the control treatment", "setting": "laying hens; laying hens, 60 days", "result": 0.91, "unit": "%"}, {"measurement": "Egg weight, % Improvement compared to the control treatment", "setting": "laying hens; laying hens, 60 days", "result": 0.58, "unit": "%"}, {"measurement": "FCR, % Improvement compared to the control treatment", "setting": "laying hens; laying hens, 60 days", "result": "−0.07", "unit": "%"}, {"measurement": "laying percentage compared to the control group (in words)", "setting": "laying hens; laying hens, 60 days", "result": "significant increase"}, {"measurement": "nutrient digestibility (in words, FIG. 6-11)", "setting": "laying hens; laying hens, 60 days", "result": "Even a better effect"}]}
